Measurements as given in US4061637A, “Certain 4-aryl-5-(4-phenylpiperazino)alkyl-4-thiazolin-2-ones” (priority 1974, dated 1977).
≈ marks a conversion by molar mass, not a printed value. Structures can show the parent of a compound that is named as a salt.

How the values were obtained:
[1] = Cataleptic activity in the mouse; assay type: in vivo; conditions: po; mouse, os; read-out: Cataleptic activity mouse ED50
[2] = Inhibition of spontaneous motility in the mouse; assay type: in vivo; conditions: mouse; for ED50: po, 0.5 h, os, 30 minutes after treatment, read-out: Spontaneous motility inhibition mouse ED50
Protocol: This is evaluated by an actophotometric method, which consists of placing the mice, 30 minutes after oral treatment with the drug or the carrier, in a cage provided with a photoelectric cell counter and counting the number of times the photoelectric cell is passed during a 10 minute stay.

[3] = Arrhythmias induced by electrical stimulation of the isolated rabbit atrium (anti-arrhythmic activity); conditions: TD / ED30, isolated rabbit atrium; read-out: I.T. (2), therapeutic index from the ratio TD/ED30
Protocol: (§1) The ED30 in the presence of scalar concentrations of anti-arrhythmic substances was measured.

isolated rabbit atrium = test: as above; conditions: for EC30: Oryctolagus cuniculus, read-out: anti-arrhythmic activity, Electrical stimulation in isolated rabbit atrium ED30
Protocol: as §1

[4] = Carrageen oedema in the conscious rat (anti-inflammatory activity); assay type: in vivo
Protocol: Anti-inflammatory activity was evaluated by the method of Winter and colleagues (Proc. Soc. Exp. Biol., 111, 544, 1962) by endoperitoneally injecting the product under examination one hour before inducing oedema by injecting 0.05 ml. of a 1% suspension of carrageen (intradermally into the plantar portion of a rear paw).
The difference between the volume of the paw determined plethysmographically one hour before and three hours after the carrageen gives a quantitative estimate of the activity of the product tested. Where possible, the ED30 was calculated.

nor-adrenalin = test: Antagonism towards a lethal dose of nor-adrenalin in the rat (α-adrenolytic activity); assay type: in vivo
Protocol: Antagonism towards a lethal dose of nor-adrenalin in the rat
The animals are treated with a dose of nor-adrenalin (0.5 mg/kg) which is 100% lethal in animals. The activity is calculated by the number of animals protected from death by prior administration of the drug under examination one hour before the agonist. Where possible the ED50 was calculated.

[5] = Ulcers by constriction (stress) in the rat; assay type: in vivo; conditions: 4 h, rat; for responders at 10 mg/kg / inhibition in vivo at 10 mg/kg: 10 mg/kg ip
Protocol: The method described by Rossi and colleagues (Compt. Rend. Soc. Biol., 150, 2124, 1956) was followed in which the formation of gastric ulcers is induced by immobilising the animal, in a state of fast for 48 hours, in a net for a period of 4 hours.
The protection given by treatment with the drug under examination before the beginning of the constriction period is evaluated by counting both the ulcers and the number of subjects without ulcers.

[6] = Acute toxicity rat LD50 iv; conditions: in vivo
[7] = Fibrillation induced by CaCl2 of the rat anaesthetised with urethane (anti-arrhythmic activity); assay type: in vivo; conditions: for selectivity ratio: in vivo, LD50 rat iv / ED50 CaCl2, read-out: I.T. (1), therapeutic index from the ratio LD50 rat iv/ED50; for ED50: rat anaesthetised with urethane, iv
Protocol: Fibrillation induced by CaCl2 of the rat anaesthetised with urethane (1 g/kg ip)
The method described by Malinow and colleagues (Rev. Argent. Cardiol., 19, 120, 1952) was followed, which consists of inducing cardiac fibrillation by administering intravenously 2 ml/kg of an 8% solution of CaCl2 in rats pretreated intravenously with scalar doses of anti-arrhythmics. The ED50 was calculated for each active drug.

[8] = Pinching the tail of the mouse (systemic analgesic activity); assay type: in vivo; conditions: po, 0.5 h, mouse, 30 minutes; for inhibition in vivo at 26 mg/kg: 26 mg/kg os
Protocol: To evaluate the analgesic activity, the method described by Bianchi and colleagues (Brit. J. Pharmacol., 9, 280, 1954) was followed which consists of applying an arterial pincer to the base of the tail in animals treated orally 30 minutes previously with the drug under examination, observing that the control animals react to the pain by squealing.

[9] = Acute toxicity under LD50 mouse; conditions: in vivo, ip
[10] = test system: Rabbit platelet aggregation; test: Rabbit platelet aggregation in vitro; assay type: cell-based; conditions: Oryctolagus cuniculus, rabbit PRP, aggregation by sodium adenosine diphosphate, read-out: Platelet anti-aggregation activity, rabbit in vitro ED50
Protocol: Rabbit platelet aggregation in vitro The method of […] (Pharmacology, 7, 115, 1972) was followed. Blood taken from conscious rabbits is centrifuged in the presence of sodium citrate (3.8%) at 350 g. for 10 minutes, so as to separate the plasma rich in platelets (PRP) from the rest. The aggregation of the platelets is carried out by bringing the PRP into contact with adequate doses of sodium adenosine diphosphate in the presence of a possible inhibitor or its carrier. The measurement of aggregation is made continuously by a turbidimetric method.

[11] = Antagonism towards electric shock convulsions in the mouse; assay type: in vivo; conditions: po, 0.5 h, mouse, 35 volt, read-out: Anti-convulsion activity, electric shock, mouse, % att.; for inhibition in vivo at 26 mg/kg: 26 mg/kg os
Protocol: This is evaluated by observing the protection given by pretreatment with the drug (30 minutes) against tonic convulsions obtained by applying a 35 volt current to the eyeballs.

[12] = read-out: Anti-ulcer activity, ulcers by stress in the rat, Protected rats %
[13] = read-out: Anti-ulcer activity, ulcers by stress in the rat, Reduction in ulcers %

Compound | ED50 [2] | selectivity ratio [3] | EC30 (isolated rabbit atrium) | TD (dose which abolishes the spontaneous contraction of the atrium) (isolated rabbit atrium; rabbit) | LD50 [6] | selectivity ratio [7] | ED50 [7] | LD50 [9] | IC50 [10] | responders at 10 mg/kg [5, 12] | inhibition in vivo at 10 mg/kg [5, 13] | inhibition in vivo at 26 mg/kg [8] | inhibition in vivo at 26 mg/kg [11] | further results
Cl.O=c1[nH]c(-c2ccc(F)cc2)c(CCN2CCOCC2)s1 [LR 618, 4-p-fluorophenyl-5-β-morpholinoethyl-4-thiazolin-2-one hydrochloride] | 60 mg/kg | 8.5 | 35.4 µg/mL | 300 µg/mL | 130 mg/kg | 9 | 15 mg/kg | 250 mg/kg | 650 µg/mL | – | – | – | – | ED50 [1]: 60 mg/kg; Anti-inflammatory activity carrageenin oedema rat, percentage activity (ED30 lacking) ([4]; 60 mg/kg ip): 9.8%; α-adrenolytic activity lethal NA rat, percentage activity (ED50 lacking) (nor-adrenalin; 15 mg/kg os): 0%; responders at 30 mg/kg ([5]; 30 mg/kg ip, read-out: Anti-ulcer activity, ulcers by stress in the rat, Protected rats %): 50%; inhibition in vivo at 30 mg/kg ([5]; 30 mg/kg ip, read-out: Anti-ulcer activity, ulcers by stress in the rat, Reduction in ulcers %): 71%; inhibition in vivo at 60 mg/kg ([8]; 60 mg/kg os, read-out: Systemic analgesic activity, tail pinching in mouse, %): 40%; inhibition in vivo at 60 mg/kg ([11]; 60 mg/kg os): 10%
COc1ccc(-c2[nH]c(=O)sc2CCN(C)CCc2ccccc2)cc1 [LR 620, 4-p-methoxyphenyl-5-β-(N-methylphenylethylamino)-ethyl-4-thiazolin-2-one maleate] | – | 30 | 1 µg/mL | – | 24 mg/kg | 12 | 2 mg/kg | 100 mg/kg | 650 µg/mL | 0% | 0% | 0% | 20% | Spontaneous motility inhibition mouse, percentage activity (ED50 lacking) ([2]; 26 mg/kg os): 0%; TD (dose which abolishes the spontaneous contraction of the atrium) (isolated rabbit atrium; isolated rabbit atrium): 30 µg/mL; ED30 ([4]; 1 h, ip, one hour before carrageen, read-out: Anti-inflammatory activity carrageenin oedema rat ED30): 36 mg/kg; ED50 (nor-adrenalin; Rattus norvegicus, po, 1 h, read-out: α-adrenolytic activity lethal NA rat ED50): 5 mg/kg
Cl.O=c1[nH]c(-c2ccc(F)cc2)c(CCN2CCCCC2)s1 [LR 617, 4-p-fluorophenyl-5-β-piperidinoethyl-4-thiazolin-2-one hydrochloride] | 19.6 mg/kg | 69 | 4.3 µg/mL | 300 µg/mL | 62 mg/kg | 15 | 4 mg/kg | 100 mg/kg | 800 µg/mL | 10% | 17% | – | – | α-adrenolytic activity lethal NA rat, percentage activity (ED50 lacking) (nor-adrenalin; 5 mg/kg os): 0%
CCN(CC)CCc1sc(=O)[nH]c1-c1ccc(F)cc1 [LR 602, 4-p-fluorophenyl-5-β-diethylaminoethyl-4-thiazolin-2-one] | 30 mg/kg | 30 | 10 µg/mL (≈ 34 µM) | 300 µg/mL | 84 mg/kg | 24 | 3.5 mg/kg | 125 mg/kg | 800 µg/mL (≈ 2720 µM) | 50% | 65% | 30% | 0% | α-adrenolytic activity lethal NA rat, percentage activity (ED50 lacking) (nor-adrenalin; 7 mg/kg os): 0%
